Experimental data: patent US20150057335A1, “NOVEL FUSION GENES IDENTIFIED IN LUNG CANCER” (National Cancer Center, priority 2013, published 2015)

Assays:
[1] = molecular target: TRIM24-BRAF fusion protein (Homo sapiens, UniProt P15056); conditions: NIH3T3 cells stably expressing TRIM24-BRAF, serum-starved, treated for 2 hours; FIG. 10C
Description: NIH3T3 cells stably transduced with plasmids expressing EZR-ERBB4 or TRIM24-BRAF cDNA or with empty plasmids were maintained in a serum-free medium overnight, and then treated with DMSO (Sigma) or the indicated inhibitor (dissolved in DMSO) for 2 hours. Whole-cell lysates were subjected to immunoblotting.
Cells were lysed in a RIPA buffer supplemented with Complete Protease and PhosSTOP Phosphatase Inhibitor Cocktail (Roche, Mannheim, Germany). Proteins were subjected to SDS-PAGE, followed by immunoblotting onto polyvinylidene difluoride membranes. The membranes were blocked for one hour with TBS supplemented with 0.1% Tween 20 and 1.0% BSA, and then probed with primary antibodies. After washing with TBS supplemented with 0.1% Tween 20, the membranes were incubated with horseradish peroxidase-conjugated anti-mouse or anti-rabbit secondary antibodies, and then visualized with an enhanced chemiluminescence reagent (Perkin Elmer, Waltham, Mass., USA). Signal intensity was calculated using the LAS3000 imaging system (Quansys Biosciences, West Logan, Utah, USA).

EZR-ERBB4 fusion protein = test: Constitutive activation of ERBB4 kinase by EZR-ERBB4 fusion and its inhibition (NIH3T3, immunoblotting); format: cell-based, mouse; conditions: NIH3T3 cells stably expressing EZR-ERBB4, serum-starved, treated for 2 hours; FIG. 10B
Description: Whole-cell lysates were subjected to immunoblotting.

[2] = system: HER2:HER3 signaling activated by CD74-NRG1 fusion in EFM-19 cells; test: HER2:HER3 signaling activation by CD74-NRG1 (EFM-19 reporter cells, conditioned medium, immunoblotting); format: cell-based, human; conditions: EFM-19 cells treated 30 minutes with conditioned medium from H1299 cells expressing CD74-NRG1; FIG. 10A
Description: To determine whether cells expressing CD74-NRG1 cDNA secreted NRG1 ligands that activate HER2:HER3 intracellular signaling, EFM-19 breast cancer cells which express both the ERRB2/HER2 and ERBB3/HER3 proteins were used as reporter cells, as previously described (Wilson T. R., et al., Cancer Cell., 2011, 20, 158-72). NCI-H1299 cells transiently transfected with CD74-NRG1-expressing plasmids or empty (control) plasmids were washed twice with PBS and serum-starved overnight by incubation in a serum-free medium. After harvesting of the medium, centrifugation was performed at 4° C. for 5 minutes to remove cell debris. […] Then, whole-cell lysates were subjected to SDS-PAGE and immunoblotting. Cells were lysed in a RIPA buffer supplemented with Complete Protease and PhosSTOP Phosphatase Inhibitor Cocktail (Roche, Mannheim, Germany). Proteins were subjected to SDS-PAGE, followed by immunoblotting onto polyvinylidene difluoride membranes. The membranes were blocked for one hour with TBS supplemented with 0.1% Tween 20 and 1.0% BSA, and then probed with primary antibodies. After washing with TBS supplemented with 0.1% Tween 20, the membranes were incubated with horseradish peroxidase-conjugated anti-mouse or anti-rabbit secondary antibodies, and then visualized with an enhanced chemiluminescence reagent (Perkin Elmer, Waltham, Mass., USA). Signal intensity was calculated using the LAS3000 imaging system (Quansys Biosciences, West Logan, Utah, USA).

Sequence of TRIM24-BRAF fusion protein (P15056 with tags, fused parts or gaps): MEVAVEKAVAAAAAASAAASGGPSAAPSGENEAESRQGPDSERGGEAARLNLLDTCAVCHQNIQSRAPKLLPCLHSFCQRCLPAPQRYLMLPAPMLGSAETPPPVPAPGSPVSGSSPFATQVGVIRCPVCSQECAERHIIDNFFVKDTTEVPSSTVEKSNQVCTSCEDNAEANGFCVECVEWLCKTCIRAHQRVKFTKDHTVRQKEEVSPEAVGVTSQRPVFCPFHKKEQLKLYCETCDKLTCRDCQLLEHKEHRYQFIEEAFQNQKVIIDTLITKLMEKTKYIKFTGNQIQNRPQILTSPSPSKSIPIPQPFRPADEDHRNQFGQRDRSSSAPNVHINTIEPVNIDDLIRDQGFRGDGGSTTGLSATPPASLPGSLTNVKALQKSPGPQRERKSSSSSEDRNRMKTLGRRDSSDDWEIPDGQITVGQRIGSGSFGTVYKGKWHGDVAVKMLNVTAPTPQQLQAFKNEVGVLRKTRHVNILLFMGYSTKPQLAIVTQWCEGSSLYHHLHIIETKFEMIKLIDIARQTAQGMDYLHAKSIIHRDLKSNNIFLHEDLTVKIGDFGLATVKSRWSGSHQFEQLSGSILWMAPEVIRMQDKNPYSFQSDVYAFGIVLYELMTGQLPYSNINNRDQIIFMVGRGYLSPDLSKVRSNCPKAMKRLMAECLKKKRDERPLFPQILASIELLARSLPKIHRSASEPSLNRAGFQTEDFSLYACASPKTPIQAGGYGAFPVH

N#CC(=C(/N)Sc1ccccc1N)/C(C#N)=C(\N)Sc1ccccc1N [U0126]
suppressed: ERK phosphorylation (activation) [1]

CS(=O)(=O)CCNCc1ccc(-c2ccc3ncnc(Nc4ccc(OCc5cccc(F)c5)c(Cl)c4)c3c2)o1 [lapatinib]
suppressed: Phosphorylation of ERBB4 (EZR-ERBB4 fusion protein) | Phosphorylation of ERK (EZR-ERBB4 fusion protein) | Phosphorylation of ERK [2] | Phosphorylation of HER2 (ERBB2) [2] | Phosphorylation of HER3 (ERBB3) [2]
